Reference: publication PMC7866801, “Design and Synthesis of N-Substituted 3,4-Pyrroledicarboximides as Potential Anti-Inflammatory Agents” (International Journal of Molecular Sciences, 2021)

Columns and labels:
COX-2 = target: T1, COX-2 (Homo sapiens, UniProt P35354); experiment: colorimetric COX peroxidase inhibitor screening kit, […] nm; assay type: biochemical; details: tested at 100 µM only, 2 min, RT; unreliable
T1 construct: gene PTGS2; homodimer
T1 sequence (P35354 18-604): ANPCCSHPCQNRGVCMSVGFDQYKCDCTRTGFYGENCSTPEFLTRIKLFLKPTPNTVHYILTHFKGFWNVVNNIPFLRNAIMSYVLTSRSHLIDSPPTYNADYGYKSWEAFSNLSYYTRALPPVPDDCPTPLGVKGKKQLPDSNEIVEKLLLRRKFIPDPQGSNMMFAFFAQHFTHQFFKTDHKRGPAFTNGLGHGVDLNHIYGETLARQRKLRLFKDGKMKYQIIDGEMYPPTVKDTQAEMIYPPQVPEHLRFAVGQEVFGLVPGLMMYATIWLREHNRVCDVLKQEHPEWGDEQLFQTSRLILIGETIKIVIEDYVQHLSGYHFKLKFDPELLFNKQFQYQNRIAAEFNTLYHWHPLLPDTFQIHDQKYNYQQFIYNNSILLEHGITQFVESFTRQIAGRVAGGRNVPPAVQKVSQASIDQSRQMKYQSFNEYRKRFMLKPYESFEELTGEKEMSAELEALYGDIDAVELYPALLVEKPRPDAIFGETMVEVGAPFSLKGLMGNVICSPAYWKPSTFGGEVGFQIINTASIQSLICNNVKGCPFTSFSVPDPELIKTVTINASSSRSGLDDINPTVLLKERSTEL

COX-1 = target: T2, COX-1 (Ovis aries, UniProt P05979); experiment: as above; assay type: biochemical; details: tested at 100 µM only, 2 min, RT; unreliable
T2 construct: gene PTGS1; homodimer
T2 sequence (P05979 25-600): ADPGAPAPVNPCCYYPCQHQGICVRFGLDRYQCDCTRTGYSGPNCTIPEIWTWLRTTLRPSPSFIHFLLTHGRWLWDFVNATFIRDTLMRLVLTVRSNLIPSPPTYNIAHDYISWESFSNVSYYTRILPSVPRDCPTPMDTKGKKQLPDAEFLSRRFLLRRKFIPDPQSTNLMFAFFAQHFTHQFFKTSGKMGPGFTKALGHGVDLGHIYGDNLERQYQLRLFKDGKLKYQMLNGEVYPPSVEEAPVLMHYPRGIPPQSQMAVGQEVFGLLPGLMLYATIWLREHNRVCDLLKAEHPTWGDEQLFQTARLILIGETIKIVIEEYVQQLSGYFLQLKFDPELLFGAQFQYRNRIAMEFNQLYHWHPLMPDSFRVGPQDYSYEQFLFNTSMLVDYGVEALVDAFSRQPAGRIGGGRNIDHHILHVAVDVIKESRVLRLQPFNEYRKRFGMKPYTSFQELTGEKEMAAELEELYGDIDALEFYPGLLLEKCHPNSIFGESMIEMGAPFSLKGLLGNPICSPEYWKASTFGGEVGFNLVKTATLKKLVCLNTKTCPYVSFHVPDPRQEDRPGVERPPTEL

| Structure (SMILES) | Cyclooxygenase Inhibition Assay IC50 [μM] / COX-2 (COX-2) | Cyclooxygenase Inhibition Assay IC50 [μM] / COX-1 (COX-1) |
| --- | --- | --- |
| Cc1c2c(c(C)n1-c1ccccc1Cl)C(=O)N(CN1CCN(c3ccc(Br)cc3)CC1)C2=O [2b, 4,6-dimethyl-5-(o-chlorophenyl)-2-{[4-(p-bromophenyl)-1-piperazinyl]methyl}pyrrolo[3,4-c]pyrrole-1,3(2H,5H)-dione] | 61.46 ± 0.02 µM | 94.17 ± 0.04 µM |
| Cc1c2c(c(C)n1-c1ccccc1)C(=O)N(CN1CCN(c3ccc(Br)cc3)CC1)C2=O [2a, 4,6-dimethyl-5-phenyl-2{[4-(p-bromophenyl)-1-piperazinyl]methyl}pyrrolo[3,4-c]pyrrole-1,3(2H,5H)-dione] | 60.85 ± 0.02 µM | 87.90 ± 0.03 µM |
| CCCCn1c(C)c2c(c1C)C(=O)N(CN1CCN(C3CCCCC3)CC1)C2=O [2i, 4,6-dimethyl-5-n-butyl-2-[(4-cyclohexyl-1-piperazinyl)methyl]pyrrolo[3,4-c]pyrrole-1,3(2H,5H)-dione] | 60.96 ± 0.04 µM | 79.87 ± 0.07 µM |
| Cc1c2c(c(C)n1-c1ccccc1)C(=O)N(CN1CCN(c3ccccc3C#N)CC1)C2=O [2c, 4,6-dimethyl-5-phenyl-2{[4-(o-cyanophenyl)-1-piperazinyl]methyl}pyrrolo[3,4-c]pyrrole-1,3(2H,5H)-dione] | 61.53 ± 0.09 µM | 94.56 ± 0.02 µM |
| Cc1c2c(c(C)n1-c1ccccc1Cl)C(=O)N(CN1CCN(C3CCCCC3)CC1)C2=O [2h, 4,6-dimethyl-5-(o-chlorophenyl)-2-[(4-cyclohexyl-1-piperazinyl)methyl]pyrrolo[3,4-c]pyrrole-1,3(2H,5H)-dione] | 59.37 ± 0.05 µM | 76.54 ± 0.06 µM |
| Cc1c2c(c(C)n1-c1ccccc1)C(=O)N(CN1CCNCC1)C2=O [2k, 4,6-dimethyl-5-phenyl-2-[(piperazinyl)methyl]pyrrolo[3,4-c]pyrrole-1,3(2H,5H)-dione] | 58.43 ± 0.06 µM | 83.47 ± 0.05 µM |
| Cc1c2c(c(C)n1-c1ccccc1)C(=O)N(CN1CCN(c3cccc(C(F)(F)F)c3)CC1)C2=O [2d, 4,6-dimethyl-5-phenyl-2{[4-(m-trifluoromethylphenyl)-1-piperazinyl]methyl}pyrrolo[3,4-c]pyrrole-1,3(2H,5H)-dione] | 60.24 ± 0.03 µM | 77.46 ± 0.06 µM |
| Cc1c2c(c(C)n1-c1ccccc1)C(=O)N(CN1CCOCC1)C2=O [2l, 4,6-dimethyl-5-phenyl-2-[(morpholinyl)methyl]pyrrolo[3,4-c]pyrrole-1,3(2H,5H)-dione] | 59.33 ± 0.09 µM | 82.72 ± 0.04 µM |
| Cc1c2c(c(C)n1-c1ccccc1)C(=O)N(CN1CCN(C3CCCCC3)CC1)C2=O [2g, 4,6-dimethyl-5-phenyl-2-[(4-cyclohexyl-1-piperazinyl)methyl]pyrrolo[3,4-c]pyrrole-1,3(2H,5H)-dione] | 59.92 ± 0.05 µM | 80.25 ± 0.06 µM |

The next lines start with the values.

| Cyclooxygenase Inhibition Assay IC50 [μM] / COX-2 (COX-2) | Cyclooxygenase Inhibition Assay IC50 [μM] / COX-1 (COX-1) | Structure (SMILES) |
| --- | --- | --- |
| 60.39 ± 0.02 µM | 88.15 ± 0.02 µM | CCCCn1c(C)c2c(c1C)C(=O)N(CN1CCC(c3ccccc3)CC1)C2=O [2m, 4,6-dimethyl-5-n-butyl-2-[(4-phenyl-1-piperidinyl)methyl]pyrrolo[3,4-c]pyrrole-1,3(2H,5H)-dione] |
| 58.38 ± 0.16 µM | 78.25 ± 0.10 µM | CCCCn1c(C)c2c(c1C)C(=O)N(CN1CCC(O)(c3ccc(Cl)cc3)CC1)C2=O [2o, 4,6-dimethyl-5-n-butyl-2-{[4-(p-chlorophenyl)-4-hydroxypiperidin-1-yl]methyl}pyrrolo[3,4-c]pyrrole-1,3(2H,5H)-dione] |
| 57.65 ± 0.04 µM | 77.59 ± 0.09 µM | CCCCn1c(C)c2c(c1C)C(=O)N(CN1CCC(O)(c3ccc(Br)cc3)CC1)C2=O [2n, 4,6-dimethyl-5-n-butyl-2-{[4-(p-bromophenyl)-4-hydroxypiperidin-1-yl]methyl}pyrrolo[3,4-c]pyrrole-1,3(2H,5H)-dione] |
| 60.75 ± 0.02 µM | 78.73 ± 0.06 µM | CCCCn1c(C)c2c(c1C)C(=O)N(CN1CCN(c3ccc(C)cc3)CC1)C2=O [2e, 4,6-dimethyl-5-n-butyl-2-{[4-(p-methylphenyl)-1-piperazinyl]methyl}pyrrolo[3,4-c]pyrrole-1,3-(2H,5H)-dione] |
| 59.77 ± 0.11 µM | 84.90 ± 0.05 µM | CCCCn1c(C)c2c(c1C)C(=O)N(CN1CCN(CCO)CC1)C2=O [2j, 4,6-dimethyl-5-n-butyl-2-{[4-hydroxyethyl-1-piperazinyl]methyl}pyrrolo[3,4-c]pyrrole-1,3(2H,5H)-dione] |
| 58.87 ± 0.08 µM | 80.51 ± 0.06 µM | CCCCn1c(C)c2c(c1C)C(=O)N(CN1CCN(c3ncccn3)CC1)C2=O [2f, 4,6-dimethyl-5-n-butyl-2-{[4-(2-pyrimidinyl)piperazin-1-yl]methyl}pyrrolo[3,4-c]pyrrole-1,3(2H,5H)-dione] |
| 59.37 ± 0.07 µM | 82.94 ± 0.04 µM | CCCCn1c(C)c2c(c1C)C(=O)N(CN1CCC(O)(Cc3ccccc3)CC1)C2=O [2p, 4,6-dimethyl-5-n-butyl-2-{[4-benzyl-4-hydroxypiperidin-1-yl]methyl}pyrrolo[3,4-c]pyrrole-1,3(2H,5H)-dione] |
